Experimental data: a melting point compilation (Tetko et al.; mined from patent text by program, amines drawn as free bases though some values may be those of a salt)

First: COC(=O)c1ccc(OCCNC(=O)C2Cc3ccccc3N2S(=O)(=O)c2ccc(-c3cccc(C(F)(F)F)c3)cc2)c(Cl)c1 (stereo not drawn)
Second: COc1ccc(S(=O)(=O)N2CCc3cccc(-c4ccc(C(F)(F)F)cc4)c32)cc1
The melting point of the first is lower: 84 to 88 °C for the first, 180 to 181 °C for the second.

Compared with `Cc1[nH]c(C)c(-c2ccc(Oc3ccc(OC(F)(F)F)cc3)cc2)c(=O)c1Br`, `COc1ccc(Cc2nc(S)[nH]c2Cc2ccc(OC)cc2)cc1` is lower in melting point: 284 to 286 °C for the first, 270 °C for the second.

`O=Cc1ccc(OC2OC(CO)C(O)C(O)C2O)c2ccccc12` (stereo not drawn) and `COC(=O)c1ccccc1-n1c(CCl)nc2ccc(F)cc2c1=O` cannot be ordered by melting point: less than 255 °C for the first, 213 to 215 °C for the second.

First: Cc1ccc2c(c1)C(=O)C[C@H]1CCN(C)C[C@H]21 (relative stereo)
Second: CN1CCC(c2c[nH]c3ccc(OC4CCCCC4)cc23)CC1
The melting point of the first is higher: greater than 250 °C for the first, 192 to 194 °C for the second.

First: COc1ccc(N2CCCn3c2nc2c(Cl)ccc(C(O)(C4CC4)C4CC4)c23)c(C)n1
Second: COc1c(-c2cc3c(s2)CCCC3O)ccc2c(=O)c(C(=O)O)cn(C3CC3)c12 (stereo not drawn)
The melting point of the first is lower: 208 to 210 °C for the first, 237 to 239 °C for the second.

First: CC(=O)Oc1ccc2c(c1)OC(c1ccccc1)(c1ccccc1)O2
Second: O=C(CSc1ccnc2ccccc12)c1ccc(OCc2ccccc2)cc1
The melting point of the first is lower: 81.5 to 82.5 °C for the first, 135 to 136 °C for the second.

First: CC(C)OC(=O)Nc1ccsc1
Second: CC(Nc1cc(Br)ccc1[N+](=O)[O-])C(=O)O (stereo not drawn)
The melting point of the first is lower: 105 to 107 °C for the first, 183 to 187 °C for the second.

First: NC(=O)c1sc2nc(N3CCC(NCC(O)c4ccc5ccccc5n4)CC3)cc(C(F)(F)F)c2c1N (stereo not drawn)
Second: NC(=O)Cc1cc(Oc2ccc3c(ccn3C(=O)Nc3ccc(CN4CCCC4)c(C(F)(F)F)c3)c2)ncn1
The melting point of the first is higher: 198 to 201 °C for the first, 123 to 124 °C for the second.

First: CC(C)(Oc1ccc(Cl)cc1)C(O)(Cn1cncn1)c1ccc(Cl)cc1 (stereo not drawn)
Second: CC(C)(Oc1ccc(NC(=O)Nc2cc(Cl)cc(Cl)c2)cc1)C(=O)O
The melting point of the first is lower: 135 °C for the first, 182 to 184 °C for the second.

Compared with `CC(C)S(=O)(=O)Nc1ccc2c(=O)c3c(sc2c1)CC(C)(C)CC3`, `CC1(C)CC(=O)c2c(Sc3ccccc3)sc(-c3cc[nH]n3)c2C1` is lower in melting point: 263 °C for the first, 231 to 234 °C for the second.

First: CCCCc1nc(S(C)(=O)=O)c(C(=O)O)n1Cc1ccc(-c2ccccc2C(=O)O)cc1
Second: CCCCc1nc(C(F)(F)F)c(C(=O)OCC)n1Cc1cccc2c1ccn2-c1ccccc1-c1nn[nH]n1
The melting point of the first is higher: 196 °C for the first, 93 to 95 °C for the second.

First: COc1ccc(/C=C/c2ccc3c(=O)n(-c4ccccn4)ncc3c2)cc1
Second: CNC(=O)c1cc(-c2ccc(OC)cc2)nn(CC(=O)NCc2ccccn2)c1=O
The melting point of the first is higher: 213 to 214 °C for the first, 195 to 196 °C for the second.

First: Nc1ccccc1-c1csc2nc(C34CC5CC(CC(C5)C3)C4)cn12
Second: CC(CN1CCCC1)N1c2ccccc2Sc2ccc(C3=NC4CCCCC4N3)cc21 (racemic)
The melting point of the first is higher: 160 to 162 °C for the first, 109 °C for the second.

First: CCOc1ccc2nc(Cl)c(C=O)cc2c1
Second: CCOC(=O)Cc1cc2ccc(Br)cc2[nH]1
The melting point of the first is higher: 163 to 164 °C for the first, 67 to 69 °C for the second.

Compared with `COP(=O)(CN[C@@H](Cc1ccc(-c2ccccc2)cc1)C(=O)NCCC(=O)O)OC`, `CCOC(=O)[C@H](Cc1ccc([N+](=O)[O-])cc1)NC(=O)c1ccccc1` is lower in melting point: 122 to 123 °C for the first, 99 to 101 °C for the second.

First: C=CCNc1ccc(C(=O)OC)cc1
Second: COc1ccc(NC(=O)OC2CN3CCC2CC3)cc1 (stereo not drawn)
The melting point of the first is lower: 71 to 73 °C for the first, 160 °C for the second.

First: NS(=O)(=O)c1cc2c(c(C(=O)O)c1)OCCO2
Second: COc1cc(NC(C)=O)c([N+](=O)[O-])cc1C(=O)O
The melting point of the first is higher: 272 to 274 °C for the first, 186 to 188 °C for the second.

Compared with `CC(C)NC(=S)N1CCc2nc(N)sc2C1`, `CCOCc1nc2c(N)nc(C)c(C)c2n1NCCCNC(=O)NC(C)C` is higher in melting point: 179 to 180 °C for the first, 203 to 205 °C for the second.

First: Cc1nc(C)c(Cl)c(NCc2nccc(N(C)CCN3CCc4ccccc4C3)c2Cl)n1
Second: CC(C)CCOc1ccc(-c2c(Cl)c(CCl)nc3sc4c(c23)CCN(Cc2ccccc2)C4)cc1
The melting point of the first is lower: 81 to 93 °C for the first, 149 to 150 °C for the second.

First: COC1=C(OC)C(=O)C(CCCCCCCCCCCCCCCC(=O)O)=C(C)C1=O
Second: CS(=O)(=O)OCCCCCCc1ccc(OCc2coc(/C=C/c3ccccc3)n2)cc1
The melting point of the first is lower: 70 to 71 °C for the first, 88 to 89 °C for the second.

First: COCNC(=O)NC1CCCc2ccccc21 (stereo not drawn)
Second: c1cc2c3c(c1)NCC3CCC2 (stereo not drawn)
The melting point of the first is higher: 124 to 128 °C for the first, 58 to 59 °C for the second.

First: COC(=O)c1ccc(C=CC(=O)c2ccc3c(c2)C(C)(C)CCC3(C)C)cc1
Second: Cc1cccc(NC(=O)NCC(=O)N2[C@@H](C(=O)NC(C)(C)C)CC[C@H]2c2ccccc2)c1 (racemic)
The melting point of the first is lower: 89 to 91 °C for the first, 169 °C for the second.

Compared with `NC(=O)c1ccc(-c2cnc3[nH]c(=O)n(CC4CCCCC4)c3n2)cc1`, `Cc1cc(-c2ccc(Cl)cc2)nn2c(=O)[nH]nc12` is lower in melting point: 293 to 295 °C for the first, 278 to 280 °C for the second.

First: CC1(C)OC(=O)C(C(=O)Nc2ccc(Cl)c(Cl)c2)=C(O)O1
Second: COCC1C(=O)C(C)(C)C(=O)N1c1ccc(C#N)c(Cl)c1 (stereo not drawn)
The melting point of the first is higher: 132 to 134 °C for the first, 98 to 99 °C for the second.

First: CN(C)c1ccc(C(=O)N2CCN(CCc3ccc(Cl)cc3)CC2)cc1
Second: CC(C)C1C(=O)N(c2ccc(N=Nc3ccc(N(C)C)cc3)cc2)C(=S)N1C (stereo not drawn)
The melting point of the first is lower: 133 to 134 °C for the first, 164 to 169 °C for the second.

First: O=C(O)CCCn1ccc(=O)c(O)c1Cc1ccccc1
Second: CC(Cc1ccccc1)(C(=O)O)S(=O)(=O)c1cccs1 (stereo not drawn)
The melting point of the first is higher: 170 to 172 °C for the first, 116 to 117 °C for the second.

First: COc1c(C(C)(C)C)cc(P(c2cc(C(C)(C)C)c(OC)c(C(C)(C)C)c2)c2ccccc2Br)cc1C(C)(C)C
Second: CCOC(=O)c1csc(-c2ccc3c(=O)n(CC(C)C)c(CNC(=O)OC(C)(C)C)c(-c4ccccc4)c3c2)n1
The melting point of the first is lower: 142 to 143 °C for the first, 170 to 171 °C for the second.

First: CNC(=O)c1[nH]c(C(C)(C)C)cc1NC(=O)Nc1ccc(C)cc1
Second: CC(C)(C)N(NC(=O)c1ccccc1)C(=O)Cc1ccccc1
The melting point of the first is lower: 164 to 166 °C for the first, 167 to 169 °C for the second.

First: O=c1ccc(S(=O)(=O)c2cc3cc(Cl)ccc3o2)n[nH]1
Second: COc1ccc(Nc2cc(Cl)ccc2[N+](=O)[O-])cc1
The melting point of the first is higher: 246 to 247 °C for the first, 98 °C for the second.

First: CCC(Cl)C(=O)NC(C)=O (stereo not drawn)
Second: CC(=O)Nc1ccc(C(C)=O)c(C)n1
The melting point of the first is lower: 51 to 53 °C for the first, 201 to 202 °C for the second.

Compared with `Cc1c(C)c2c(c(C)c1OCCCc1ccccc1)C(c1ccc(C(C)C)cc1)C(C)(C)O2` (stereo not drawn), `OC(CNC1CCc2ccccc2C1)COc1ccc2ccccc2c1` (stereo not drawn) is higher in melting point: 78 to 80 °C for the first, 102 to 115 °C for the second.

Compared with `CCCc1nc(CO)c(C(=O)O)n1Cc1cc2c(cc1Cl)OCO2`, `CCCc1nc2c(N)nc3ccccc3c2n1CC1(O)CCS(=O)(=O)CC1` is higher in melting point: 240 °C for the first, greater than 250 °C for the second.

Compared with `CCCCCCC(C)OC(=O)c1ccc(-c2ccc(-c3ccc(C(=O)OC(C)CCCCCC)cc3)cc2)cc1` (stereo not drawn), `CCC(CC)C(NS(=O)(=O)c1ccc(C#N)cc1)c1ccnn1-c1ccccc1` (stereo not drawn) is higher in melting point: 81 to 82 °C for the first, 135 to 137 °C for the second.

Compared with `Cc1oc(C)c2c1C(=O)c1c(O)ccc(O)c1C2=O`, `COc1c(F)cc2c(=O)c(C(=O)O)cn(-c3cc(N)c(F)cc3F)c2c1C` is higher in melting point: 255 to 256 °C for the first, greater than 280 °C for the second.

Compared with `O=c1nc(-c2cccc(Cl)c2)c2cc(C(c3ccc(Cl)cc3)n3ccnc3)ccc2[nH]1` (stereo not drawn), `COCOc1ccc(Cl)cc1-c1cc(-c2cccc([N+](=O)[O-])c2)c(C#N)c(N)n1` is lower in melting point: 255 °C for the first, 192 to 193 °C for the second.

First: CCC(=O)C(=Cc1cc(O)c(O)c(C#N)c1)C(=O)CC
Second: CCOC(=O)c1cc2n(c1)CN(C(=O)OCC)c1ccc(Br)cc1-2
The melting point of the first is higher: 165 to 173 °C for the first, 161 to 163 °C for the second.

First: O=[N+]([O-])c1ccc(OCc2nnco2)cc1
Second: ClCCCOc1ccc(Cl)cc1
The melting point of the first is higher: 125 to 126 °C for the first, 35 to 36 °C for the second.

Compared with `O=P(O)(O)C1CCCN1` (stereo not drawn), `O=C(O)C1CCc2[nH]c3ccccc3c2C1` (stereo not drawn) is lower in melting point: 275 to 280 °C for the first, 198 to 199 °C for the second.

First: O=C(O)Cc1c(Cl)nc(-c2cc([N+](=O)[O-])c(Cl)c([N+](=O)[O-])c2)n1Cc1ccccc1
Second: COC(=S)c1ccncc1Cc1ccccc1
The melting point of the first is higher: 100 to 105 °C for the first, 79 to 80 °C for the second.

First: CCOC(=O)c1[nH]c(=O)sc1Br
Second: CCOC(=O)c1[nH]nnc1Nc1ccccc1
The melting point of the first is lower: 121 °C for the first, 129 to 130 °C for the second.

First: Cc1nnc(-c2ccc3occ(C#N)c3c2)o1
Second: N#CNc1ccccc1-c1ccc(Cl)cc1
The melting point of the first is higher: 188 to 189 °C for the first, 106 to 107 °C for the second.

First: CC(c1c[nH]cn1)c1cccc2c1OC(C)(C)OC2 (stereo not drawn)
Second: CC(C)(C)OC(=O)Cn1ccn(C2CCc3ccccc3C2)c1=S (stereo not drawn)
The melting point of the first is lower: 118 °C for the first, 167 to 169 °C for the second.

First: O=C(O)COc1ccc(-c2nc3ncccc3[nH]2)c(O)c1
Second: O=C(Cc1ccc(Cl)cc1)Nc1ccc(O)cc1O
The melting point of the first is higher: 235 °C for the first, 178 to 179 °C for the second.

Compared with `N=C1NCCN1Cc1ccccc1`, `COC(=O)CCC(=O)c1ccccc1NC(=O)CCl` is lower in melting point: 165 to 167 °C for the first, 102 °C for the second.

Compared with `Oc1ccccc1C=Cc1cccc2[nH]ccc12`, `CC(C)(C)OC(=O)n1cc(C(=O)c2ccn3c2CSC3c2cccnc2)c2ccccc21` (stereo not drawn) is higher in melting point: 140 °C for the first, 150 to 152 °C for the second.

First: COc1c(C)cnc(Cn2cc(C#CCCCN3CCN(C)CC3)c3c(Cl)nc(N)nc32)c1C
Second: CCCCCN1CCN(c2nc(C)c(C(=O)NCc3cccnc3)s2)C1=O
The melting point of the first is higher: 160 to 162 °C for the first, 102 to 103 °C for the second.

Compared with `OC1(c2ccc(Cl)nc2)CCCC1`, `CN(C)Cc1ccc([C@H]2CC[C@H](O)CC2)cc1` is lower in melting point: 92 to 93 °C for the first, 63 to 65 °C for the second.

First: Cc1nnc2n1-c1ccc(Br)cc1C(c1ccccn1)=NC2
Second: Fc1ccc2[nH]cc(CC3CCN(CC4COc5ccc6ncccc6c5O4)CC3)c2c1 (stereo not drawn)
The melting point of the first is higher: 248 to 250 °C for the first, 184 °C for the second.

First: O=c1ncc(C(F)(F)F)c[nH]1
Second: O=C1CCSc2sccc21
The melting point of the first is higher: 154 °C for the first, 61 to 62 °C for the second.

Compared with `CC(NC(=O)/C=C\C(=O)O)C(O)c1ccccc1` (stereo not drawn), `CC(=O)N(O)Cc1ccc(C(O)C#Cc2cccs2)cc1` (stereo not drawn) is lower in melting point: 154 to 156 °C for the first, 125 to 126 °C for the second.

Compared with `CC(=O)Nc1cc2c(cc1C#N)[C@@H](N1CCCC1)[C@H](O)C(C)(C)O2` (relative stereo), `COC(=O)c1csc2c(=O)cc(C3CCCCC3)oc12` is lower in melting point: 175 to 176 °C for the first, 114 to 119 °C for the second.

`CC(=O)NC[C@H]1CN(c2ccc(N3CCN(C(=O)CCC(=O)c4ccc(Br)cc4)CC3)c(F)c2)C(=O)O1` showed a melting point of 197 to 198 °C.
